Laboratory results taken from US20250230193A1, “CYCLIC COMPOUND HAVING SELECTIVE KRAS INHIBITORY EFFECT ON HRAS AND NRAS” (CHUGAI SEIYAKU KABUSHIKI KAISHA, priority 2022, published 2025).

Experiments:
[1] = target: GDP-bound NRAS wild-type protein (Homo sapiens, UniProt P01111); test: Binding to NRAS by surface plasmon resonance (SPR), Single Cycle Kinetics; conditions: KD ratio, GDP-bound NRAS wild-type vs GDP-bound KRAS wild-type, SPR
[2] = target: GDP-bound HRAS wild-type protein (Homo sapiens, UniProt P01112); test: Binding to HRAS by surface plasmon resonance (SPR), Single Cycle Kinetics; conditions: KD ratio, GDP-bound HRAS wild-type vs GDP-bound KRAS wild-type, SPR
Sequence of GDP-bound HRAS wild-type protein (P01112 whole entry): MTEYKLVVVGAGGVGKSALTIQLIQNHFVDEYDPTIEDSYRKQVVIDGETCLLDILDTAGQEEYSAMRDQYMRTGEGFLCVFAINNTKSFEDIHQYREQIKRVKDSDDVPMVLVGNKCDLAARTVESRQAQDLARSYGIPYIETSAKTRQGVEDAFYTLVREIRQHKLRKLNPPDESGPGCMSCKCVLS

Sequence of GDP-bound NRAS wild-type protein (P01111 whole entry): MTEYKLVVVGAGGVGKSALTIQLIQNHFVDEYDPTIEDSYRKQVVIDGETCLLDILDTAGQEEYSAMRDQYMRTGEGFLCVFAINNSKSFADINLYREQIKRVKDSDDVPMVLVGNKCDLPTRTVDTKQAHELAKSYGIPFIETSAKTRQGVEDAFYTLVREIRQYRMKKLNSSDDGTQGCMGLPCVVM

SMILES	NRAS/KRAS (ratio of KD value with respect to NRAS to KD value with respect to KRAS) [1]	HRAS/KRAS (ratio of KD value with respect to HRAS to KD value with respect to KRAS) [2]
CC[C@H](C)[C@@H]1NC(=O)[C@H](Cc2ccccc2)N(C)C(=O)C[C@@H](C(=O)N2CCOCC2)N(C)C(=O)[C@H](C2CCCC2)N(C)C(=O)C2(CCCC2)NC(=O)[C@@H]2CCCN2C(=O)[C@H](CCc2ccc(C(F)(F)F)c(Cl)c2)NC(=O)CN(C)C(=O)[C@H](Cc2ccc(F)cc2)N2CCCCC[C@@H](C2=O)N(C)C(=O)CN(C)C1=O [PP0961]	B (a compound having 3 or more and less than 10 is denoted as B)	B (a compound having 3 or more and less than 10 is denoted as B)
CC[C@H](C)[C@@H]1NC(=O)[C@H](Cc2cccc(F)c2)N(C)C(=O)C[C@@H](C(=O)N2CCOCC2)N(C)C(=O)[C@H](C2CCCC2)N(C)C(=O)C2(CCCC2)NC(=O)[C@@H]2CCCN2C(=O)[C@H](CCc2ccc(C(F)(F)F)c(Cl)c2)NC(=O)CN(C)C(=O)[C@H](Cc2ccc(F)cc2)N2CCCCC[C@@H](C2=O)N(C)C(=O)CN(C)C1=O [PP0962]	B (a compound having 3 or more and less than 10 is denoted as B)	B (a compound having 3 or more and less than 10 is denoted as B)
CC[C@H](C)[C@@H]1NC(=O)[C@H](Cc2cccc(Cl)c2)N(C)C(=O)C[C@@H](C(=O)N2CCOCC2)N(C)C(=O)[C@H](C2CCCC2)N(C)C(=O)C2(CCCC2)NC(=O)[C@@H]2CCCN2C(=O)[C@H](CCc2ccc(C(F)(F)F)c(Cl)c2)NC(=O)CN(C)C(=O)[C@H](Cc2ccc(F)cc2)N2CCCCC[C@@H](C2=O)N(C)C(=O)CN(C)C1=O [PP0963]	B (a compound having 3 or more and less than 10 is denoted as B)	B (a compound having 3 or more and less than 10 is denoted as B)
CC[C@H](C)[C@@H]1NC(=O)[C@H](CC(C)C)N(C)C(=O)C[C@@H](C(=O)N2CCOCC2)N(C)C(=O)[C@H](C2CCCC2)N(C)C(=O)C2(CCCC2)NC(=O)[C@@H]2CCCN2C(=O)[C@H](CCc2cc(F)c(C(F)(F)F)c(F)c2)NC(=O)CN(C)C(=O)[C@H](Cc2ccc(F)cc2)N2CCCCC[C@@H](C2=O)N(C)C(=O)CN(C)C1=O [PP0964]	B (a compound having 3 or more and less than 10 is denoted as B)	B (a compound having 3 or more and less than 10 is denoted as B)
CCO[C@@H]1C[C@H]2C(=O)NC3(CCCC3)C(=O)N(C)[C@@H](C3CCCC3)C(=O)N(C)[C@H](C(=O)N3CCOCC3)CC(=O)N(C)[C@@H](CC(C)C)C(=O)N[C@@H]([C@@H](C)CC)C(=O)N(C)CC(=O)N(C)[C@H]3CCCCCN(C3=O)[C@@H](Cc3ccc(F)cc3)C(=O)N(C)CC(=O)N[C@@H](CCc3ccc(C(F)(F)F)c(Cl)c3)C(=O)N2C1 [PP0965]	B (a compound having 3 or more and less than 10 is denoted as B)	B (a compound having 3 or more and less than 10 is denoted as B)
CC[C@H](C)[C@@H]1NC(=O)[C@H](CC(C)C)N(C)C(=O)C[C@@H](C(=O)N2CCOCC2)N(C)C(=O)[C@H](C2CCCC2)N(C)C(=O)C2(CCCC2)NC(=O)[C@@H]2CC(F)(F)CN2C(=O)[C@H](CCc2ccc(C(F)(F)F)c(Cl)c2)NC(=O)CN(C)C(=O)[C@H](Cc2ccc(F)cc2)N2CCCCC[C@@H](C2=O)N(C)C(=O)CN(C)C1=O [PP0966]	B (a compound having 3 or more and less than 10 is denoted as B)	B (a compound having 3 or more and less than 10 is denoted as B)
CC[C@H](C)[C@@H]1NC(=O)[C@H](CC(C)C)N(C)C(=O)C[C@@H](C(=O)N2CCOCC2)N(C)C(=O)[C@H](C2CCCC2)N(C)C(=O)C2(CCC2)NC(=O)[C@@H]2CCCN2C(=O)[C@H](CCc2ccc(C(F)(F)F)c(Cl)c2)NC(=O)CN(C)C(=O)[C@H](Cc2ccc(F)cc2)N2CCCCC[C@@H](C2=O)N(C)C(=O)CN(C)C1=O [PP0967]	B (a compound having 3 or more and less than 10 is denoted as B)	B (a compound having 3 or more and less than 10 is denoted as B)
CCO[C@@H]1C[C@H]2C(=O)NC3(CCC3)C(=O)N(C)[C@@H](C3CCCC3)C(=O)N(C)[C@H](C(=O)N3CCOCC3)CC(=O)N(C)[C@@H](CC(C)C)C(=O)N[C@@H]([C@@H](C)CC)C(=O)N(C)CC(=O)N(C)[C@H]3CCCCCN(C3=O)[C@@H](Cc3ccc(F)cc3)C(=O)N(C)CC(=O)N[C@@H](CCc3ccc(C(F)(F)F)c(Cl)c3)C(=O)N2C1 [PP0968]	B (a compound having 3 or more and less than 10 is denoted as B)	B (a compound having 3 or more and less than 10 is denoted as B)
CC[C@H](C)[C@@H]1NC(=O)[C@H](CC(C)C)N(C)C(=O)C[C@@H](C(=O)N2CCOCC2)N(C)C(=O)[C@H](C2CCCC2)N(C)C(=O)C2(CCC2)NC(=O)[C@@H]2CC(F)(F)CN2C(=O)[C@H](CCc2ccc(C(F)(F)F)c(Cl)c2)NC(=O)CN(C)C(=O)[C@H](Cc2ccc(F)cc2)N2CCCCC[C@@H](C2=O)N(C)C(=O)CN(C)C1=O [PP0969]	B (a compound having 3 or more and less than 10 is denoted as B)	B (a compound having 3 or more and less than 10 is denoted as B)
CC[C@H](C)[C@@H]1NC(=O)[C@H](CC(C)C)N(C)C(=O)C[C@@H](C(=O)N2CCOCC2)N(CC)C(=O)[C@H](C2CCCC2)N(C)C(=O)C2(CCCC2)NC(=O)[C@@H]2CCCN2C(=O)[C@H](CCc2ccc(C(F)(F)F)c(Cl)c2)NC(=O)CN(C)C(=O)[C@H](Cc2ccc(F)cc2)N2CCCCC[C@@H](C2=O)N(C)C(=O)CN(C)C1=O [PP0970]	B (a compound having 3 or more and less than 10 is denoted as B)	B (a compound having 3 or more and less than 10 is denoted as B)
CC[C@H](C)[C@@H]1NC(=O)[C@H](CC(C)C)N(C)C(=O)C[C@@H](C(=O)N(C)C)N(C)C(=O)[C@H](C2CCCC2)N(C)C(=O)C2(CCCC2)NC(=O)[C@@H]2CCCN2C(=O)[C@H](CCc2ccc(C(F)(F)F)c(Cl)c2)NC(=O)CN(C)C(=O)[C@H](Cc2ccc(F)cc2)N2CCCCC[C@@H](C2=O)N(C)C(=O)CN(C)C1=O [PP0971]	B (a compound having 3 or more and less than 10 is denoted as B)	B (a compound having 3 or more and less than 10 is denoted as B)
CCO[C@@H]1C[C@H]2C(=O)NC3(CCC3)C(=O)N(C)[C@@H](C3CCCC3)C(=O)N(C)[C@H](C(=O)N(C)C)CC(=O)N(C)[C@@H](CC(C)C)C(=O)N[C@@H]([C@@H](C)CC)C(=O)N(C)CC(=O)N(C)[C@H]3CCCCCN(C3=O)[C@@H](Cc3ccc(F)cc3)C(=O)N(C)CC(=O)N[C@@H](CCc3ccc(C(F)(F)F)c(Cl)c3)C(=O)N2C1 [PP0972]	B (a compound having 3 or more and less than 10 is denoted as B)	B (a compound having 3 or more and less than 10 is denoted as B)
CC[C@H](C)[C@@H]1NC(=O)[C@H](CC(C)C)N(C)C(=O)C[C@@H](C(=O)N(C)C)N(C)C(=O)[C@H](C2CCCC2)N(C)C(=O)C2(CCC2)NC(=O)[C@@H]2CC(F)(F)CN2C(=O)[C@H](CCc2ccc(C(F)(F)F)c(Cl)c2)NC(=O)CN(C)C(=O)[C@H](Cc2ccc(F)cc2)N2CCCCC[C@@H](C2=O)N(C)C(=O)CN(C)C1=O [PP0973]	B (a compound having 3 or more and less than 10 is denoted as B)	B (a compound having 3 or more and less than 10 is denoted as B)
CCO[C@@H]1C[C@H]2C(=O)NC3(CCC3)C(=O)N(C)[C@@H](C3CCCC3)C(=O)N(CCC3CCCC3)[C@H](C(=O)N(C)C)CC(=O)N(C)[C@@H](CC(C)C)C(=O)N[C@@H]([C@@H](C)CC)C(=O)N(C)CC(=O)N(C)[C@H]3CCCCCN(C3=O)[C@@H](Cc3ccc(F)cc3)C(=O)N(C)CC(=O)N[C@@H](CCc3ccc(C(F)(F)F)c(Cl)c3)C(=O)N2C1 [PP0976]	B (a compound having 3 or more and less than 10 is denoted as B)	B (a compound having 3 or more and less than 10 is denoted as B)
CC[C@H](C)[C@@H]1NC(=O)[C@H](CC(C)C)N(C)C(=O)C[C@@H](C(=O)N(C)C)N(CCC2CCCC2)C(=O)[C@H](C2CCCC2)N(C)C(=O)C2(CCC2)NC(=O)[C@@H]2CC(F)(F)CN2C(=O)[C@H](CCc2ccc(C(F)(F)F)c(Cl)c2)NC(=O)CN(C)C(=O)[C@H](Cc2ccc(F)cc2)N2CCCCC[C@@H](C2=O)N(C)C(=O)CN(C)C1=O [PP0977]	B (a compound having 3 or more and less than 10 is denoted as B)	A (a compound having 10 or more and less than 20 is denoted as A)
CCO[C@@H]1C[C@H]2C(=O)NC3(CCC3)C(=O)N(C)[C@@H](C3CCCC3)C(=O)N(C)[C@H](C(=O)N(C)C)CC(=O)N(C)[C@@H](CC)C(=O)N[C@@H]([C@@H](C)CC)C(=O)N(C)CC(=O)N(C)[C@H]3C/C=C\CCN(C3=O)[C@@H](Cc3ccc(C(F)(F)F)cc3)C(=O)N(C)CC(=O)N[C@@H](CCc3ccc(C(F)(F)F)c(Cl)c3)C(=O)N2C1 [PP0978]	A (a compound having 10 or more and less than 20 is denoted as A)	B (a compound having 3 or more and less than 10 is denoted as B)
